How the values were obtained:
[1] = Inhibition of HCV genotype 3a replicons NS5A infected in human Huh7 cells by luciferase reporter gene assay
[2] = Inhibition of HCV genotype 1b replicons NS5A infected in human Huh7 cells by luciferase reporter gene assay
[3] = Inhibition of HCV genotype 1a replicons NS5A infected in human Huh7 cells by luciferase reporter gene assay
[4] = Inhibition of HCV genotype 3a replicon NS5A
[5] = Inhibition of HCV genotype 1b replicon NS5A S2204I mutant infected in human Huh7 cells
[6] = Inhibition of HCV genotype 1a replicon NS5A S2204I mutant infected in human Huh7 cells

Row | SMILES | EC50 [1] | EC50 [2] | EC50 [3] | EC50 [4] | EC50 [5] | EC50 [6]
1 | COC(=O)N[C@H](NC(=O)N1CCC[C@H]1c1nc2ccc(-c3ccc4cc(-c5cnc([C@@H]6CCCN6C(=O)[C@@H](NC(=O)OC)C6CCOCC6)[nH]5)ccc4c3)cc2[nH]1)C1CCOCC1 | 1.1 nM | 0.113 nM | 0.13 nM |  |  | 
2 | COC(=O)N[C@H](NC(=O)N1CCC[C@H]1c1nc2ccc(-c3ccc4cc(-c5cnc([C@@H]6CCCN6C(=O)[C@@H](NC(=O)OC)[C@@H](C)OC)[nH]5)ccc4c3)cc2[nH]1)C(C)C | 1.6 nM | 0.022 nM | 0.1 nM |  |  | 
3 | COC(=O)N[C@H](NC(=O)N1CCC[C@H]1c1nc2ccc(-c3ccc4cc(-c5cnc([C@@H]6CCCN6C(=O)[C@@H](NC(=O)OC)[C@@H](C)OC)[nH]5)ccc4c3)cc2[nH]1)[C@@H](C)OC | 1.5 nM | 0.047 nM | 0.13 nM |  |  | 
4 | COC(=O)N[C@H](NC(=O)N1CCC[C@H]1c1nc2ccc(-c3ccc4cc(-c5cnc([C@@H]6CCCN6C(=O)[C@@H](NC(=O)OC)C(C)C)[nH]5)ccc4n3)cc2[nH]1)C(C)C | 1.1 nM | 0.042 nM | 0.26 nM |  |  | 
5 | COC(=O)N[C@H](NC(=O)N1CCC[C@H]1c1nc2cnc(-c3ccc4cc(-c5cnc([C@@H]6CCCN6C(=O)[C@@H](NC(=O)OC)C(C)C)[nH]5)ccc4c3)cc2[nH]1)C(C)C | 15 nM | 0.052 nM | 1.2 nM |  |  | 
6 | CC[C@H](C)[C@H](NC(=O)OC)NC(=O)N1CCC[C@H]1c1nc2ccc(-c3ccc4cc(-c5cnc([C@@H]6CCCN6C(=O)[C@@H](NC(=O)OC)[C@@H](C)CC)[nH]5)ccc4c3)cc2[nH]1 | 2.3 nM | 0.015 nM | 0.11 nM |  |  | 
7 | COC(=O)N[C@H](NC(=O)N1CCC[C@H]1c1ncc(-c2ccc(-c3ccc(-c4cnc([C@@H]5CCCN5C(=O)[C@@H](NC(=O)OC)C(C)C)[nH]4)cc3)cc2)[nH]1)C(C)C | 0.67 nM | 0.073 nM | 0.14 nM | 0.146 nM | 0.009 nM | 0.05 nM
8 | COC(=O)N[C@H](NC(=O)N1CCC[C@H]1c1nc2ccc(-c3ccc4cc(-c5cnc([C@@H]6CCCN6C(=O)[C@@H](NC(=O)OC)C(C)C)[nH]5)ccc4c3)nc2[nH]1)C(C)C | 2.1 nM | 0.025 nM | 0.08 nM |  |  | 
9 | COC(=O)N[C@H](NC(=O)N1CCC[C@H]1c1nc2ccc(-c3ccc4cc(-c5cnc([C@@H]6CCCN6C(=O)[C@@H](NC(=O)OC)C6CCCC6)[nH]5)ccc4c3)cc2[nH]1)C1CCCC1 | 2.4 nM | 0.003 nM | 0.05 nM |  |  | 
10 | CC[C@@H](C)[C@H](NC(=O)OC)NC(=O)N1CCC[C@H]1c1nc2ccc(-c3ccc4cc(-c5cnc([C@@H]6CCCN6C(=O)[C@@H](NC(=O)OC)[C@H](C)CC)[nH]5)ccc4c3)cc2[nH]1 | 9.5 nM | 0.009 nM | 0.6 nM |  |  | 
11 | COC(=O)N[C@H](NC(=O)N1CCC[C@H]1c1nc2ncc(-c3ccc4cc(-c5cnc([C@@H]6CCCN6C(=O)[C@@H](NC(=O)OC)C(C)C)[nH]5)ccc4c3)cc2[nH]1)C(C)C | 6.6 nM | 0.026 nM | 0.23 nM |  |  | 

Further lines, with some results ahead:

Row | EC50 [1] | EC50 [2] | EC50 [3] | SMILES | EC50 [4] | EC50 [5] | EC50 [6]
12 | 0.03 nM | 0.014 nM | 0.22 nM | COC(=O)N[C@H](NC(=O)N1CCC[C@H]1c1nc2ccc(-c3ccc4cc(-c5cnc([C@@H]6CCCN6C(=O)[C@H](NC(=O)OC)c6ccccc6)[nH]5)ccc4c3)cc2[nH]1)C(C)C |  |  | 
13 | 0.06 nM | 0.011 nM | 0.11 nM | COC(=O)N[C@@H](NC(=O)N1CCC[C@H]1c1nc2ccc(-c3ccc4cc(-c5cnc([C@@H]6CCCN6C(=O)[C@@H](NC(=O)OC)C(C)C)[nH]5)ccc4c3)cc2[nH]1)c1ccccc1 |  |  | 
14 | 0.86 nM | 0.023 nM | 0.05 nM | COC(=O)N[C@H](NC(=O)N1CCC[C@H]1c1nc2ccc(-c3ccc4cc(-c5cnc([C@@H]6CCCN6C(=O)[C@@H](NC(=O)OC)C(C)C)[nH]5)ccc4c3)cc2[nH]1)C1CCOCC1 |  |  | 
15 | 1 nM | 0.015 nM | 0.07 nM | CC[C@H](C)[C@H](NC(=O)OC)NC(=O)N1CCC[C@H]1c1nc2ccc(-c3ccc4cc(-c5cnc([C@@H]6CCCN6C(=O)[C@@H](NC(=O)OC)[C@@H](C)OC)[nH]5)ccc4c3)cc2[nH]1 |  |  | 
16 | 0.89 nM | 0.03 nM | 0.08 nM | COC(=O)N[C@H](NC(=O)N1CCC[C@H]1c1nc2ccc(-c3ccc4cc(-c5cnc([C@@H]6CCCN6C(=O)[C@@H](NC(=O)OC)C6CCOCC6)[nH]5)ccc4c3)cc2[nH]1)C(C)C |  |  | 

Reference: BindingDB's records for doi:10.1016/j.bmcl.2016.07.066 (Presidio Pharmaceuticals, 2016)
